Structures can show the parent of a compound that is named as a salt. Where two headings read alike, the source gives them in different places.
What was measured:
[1] = test system: C57BL/6J mice with bleomycin-induced pulmonary fibrosis; experiment: Mouse model with bleomycin-induced pulmonary fibrosis; format: in vivo; conditions: for improved (modified) Ashcroft score: oral once a day for 28 days, Compound 1 60 mg/kg, nintedanib 100 mg/kg, BLM group 5.5±0.8, mean and standard deviation, FIG. 9
Method: For the mouse model with bleomycin-induced pulmonary fibrosis, C57BL/6J male mice aged 5 weeks and before and after body weight of 20 g were used. C57BL/6J mice were anesthetized by intraperitoneally injection of pentobarbital (40 mg/kg), the skin of the anterior neck or midline was incised, the trachea was exposed with a self-retaining retractor, and then a micro syringe was inserted from the occipital side to the lungs to slowly administer bleomycin (2 mg/kg) while checking the state of respiration. Immediately after injection, the skin of the incised anterior neck or midline was sutured, and then they were bred in a sterile animal room at constant temperature (22-26° C.) and constant humidity (55-60%). By this method, remarkable fibrosis occurred in the lungs, usually after 3 weeks of treatment. Experimental animals were 7 animals in each group, and the experiment was conducted by dividing them into the following groups: a control group (Control) orally administered with distilled water, a group (BLM) with bleomycin-induced pulmonary fibrosis, an experimental group as a positive control group (BLM+Nintedanib) orally administered with 100 mg/kg of nintedanib daily 3 weeks after administration of bleomycin, and an experimental group (BLM+Compound 1) orally administered with 60 mg/kg of Compound 1 daily 3 weeks after administration of bleomycin. Nintedanib and Compound 1 were orally administered once a day for 28 days. On the day after the last administration of nintedanib or compound 1, each animal was anesthetized, and then was bled by cardiac puncture and sacrificed. Lung tissues were enucleated from all animals for histopathological examination. The enucleated lung tissue was fixed in 10% neutral buffered formalin (NBF). The fixed lung tissue was embedded in paraffin and sliced to a thickness of 4 μm to prepare a tissue slide. The tissue slides were subjected to hematoxylin & eosin (H&E) staining, which is cell staining, and Masson's trichrome (MT) staining to confirm fibrosis. Histopathological examination of the prepared tissue slides was confirmed using an optical microscope (Carl Zeiss, Oberkochen, Germany). The severity of fibrosis was assessed using the modified Ashcroft scale, which is a semi-quantitative histopathological scoring. For immunohistochemical staining, the tissue slides prepared above were de-paraffinized, and then rabbit anti-α-smooth muscle actin (SMA) antibody or rabbit anti-collagen type I antibody was used as a primary antibody. And, Vectastatin ABC kit (Vector Laboratories, Inc, Burlingame, CA) was used to confirm the expression of the antigen reacted with each antibody. […] When reading the staining result, if the cytoplasm is colored reddish-brown in whole or in part, it is considered that there is an immune reaction, and thus, it is read as positive. From the experimental results, the mean and standard deviation were obtained using the SPSS ver. 22.0 statistical program (SPSS Inc., Chicago, IL, USA), and the significance of the difference between the experimental groups was verified at p<0.05 level by the student t-test.

[2] = test system: normal human lung fibroblasts (NHLFs); experiment: PMA stimulation-induced reactive oxygen species generation in normal human lung fibroblasts; format: cell-based; conditions: FIG. 1
Description: In order to confirm the effect of the compounds of the synthetic examples on the generation of reactive oxygen species from lung fibroblasts, the generation of reactive oxygen species was induced through PMA stimulation in normal human lung fibroblasts (NHLFs, Lonza), and the inhibitory effect of Compound 1 on the generation of reactive oxygen species was observed under this condition. Each cell was suspended in a culture medium containing 10% FBS, seeded in a 96-well plate, and cultured for 24 hours under conditions of 5% CO2 and 37° C. After pre-treating Compound 1 for 30 minutes to 1 hour, TGF-β1 or phorbol 12-myristate 13-acetate (PMA) stimulation was applied to each well including cells and drugs.

[3] = test system: normal human lung fibroblasts (NHLFs); experiment: TGF-β1-induced αSMA and collagen type I expression (myofibroblast differentiation), immunocytochemistry; format: cell-based; conditions: 10 ng/ml TGF-β1 72 hours, 2 mM Compound 1 pre-treated 1 hour
Method: In order to analyze the effect of Compound 1 on the differentiation of lung fibroblasts into myofibroblasts, the inhibitory effect of Compound 1 on the increase in the expression of TGF-β1-induced α-smooth muscle actin (αSMA) and collagen type I (collagen I) in normal human lung fibroblasts (NHLFs, Lonza) was observed. NHLF cells were suspended in culture medium (FGM-2 Bulletkit media, Lonza) and inoculated at a concentration of 1×10^4 cells/well on a 4-well chamber slide (Nunc). After 24 hours of culture in a CO2 incubator, the medium was replaced with a serum-free medium and further cultured for 12 hours. Thereafter, vehicle and 2 mM Compound 1 were pre-treated in the corresponding wells for 1 hour, and then 10 ng/ml of TGF-β1 was treated in each well except for the negative control (vehicle group) for 72 hours. Confirmation of the expression of αSMA and collagen I in the prepared cells was performed through immunocytochemistry as follows. Cells were fixed in 4% paraformaldehyde for 10 minutes and permeated using 0.1% Triton X-100, and primary antibody (anti-αSMA Ab, 1:200; anti-collagen I Ab, 1:500, reacted for 3 hours at room temperature) and secondary antibody (ALEXA™-594 conjugated Ab, 1:1000, reacted for 1 hour at room temperature) treatment process was sequentially performed, and then the expression of αSMA and collagen I was observed using a fluorescence microscope. […]

[4] = test system: IL-1β; experiment: LPS-induced IL-1β expression in normal human lung fibroblasts, RT-PCR; format: cell-based; conditions: NHLFs, pre-treated 30 minutes, LPS 6 hours, FIG. 4
[5] = test system: severe acute respiratory syndrome coronavirus 2 (SARS-CoV2); experiment: Antiviral activity against SARS-CoV2 in Calu-3 cells, real-time qRT-PCR; format: cell-based; conditions: for IC50: Severe acute respiratory syndrome coronavirus 2, SARS-CoV2 in Calu-3 cells, read-out: IC50 (50% inhibition concentration), antiviral efficacy
[6] = Toxicity to Calu-3 human lung epithelial cells; format: cell-based; conditions: Calu-3 cells, read-out: CC50 (50% cytotoxic concentration)
Method: In order to analyze the antiviral activity of the compounds of the synthetic examples, real-time qRT-PCR (quantitative RT-PCR) was perfumed using severe acute respiratory syndrome coronavirus 2 (SARS-CoV2) and Calu-3 cells, which are human lung epithelial cells. Human lung epithelial cells (Calu-3) were cultured in Dulbecco's Modified Eagle Medium (DMEM) at 37° C. under 5% CO2. The concentration of Compound 1 was 15, 12.5, 6.25, 3.125, 1.563, 0.781, 0.391, 0.195, 0.098, 0.049, 0.024, 0.012 μM. Antiviral efficacy (IC50; 50% inhibition concentration) and toxicity to the cells (CC50; 50% cytotoxic concentration) according to drug concentration were measured at 24 hours and 48 hours after treatment on the cells by concentration, and are shown in Table 1 and FIG. 10.

[7] = 60 mg/kg oral once a day for 28 days, FIG. 5

Compound | improved (modified) Ashcroft score [1] | generation of PMA stimulation-induced reactive oxygen species [2] | increase in the expression of αSMA ([3]; FIG. 2) | increase in the expression of collagen I ([3]; FIG. 3) | LPS-induced IL-1β expression [4] | deformation of the lung structure (H&E staining) [1, 7] | hypertrophic epithelial cells (H&E staining) [1, 7] | site of abnormal tissue deposition (H&E staining) [1, 7] | degree of infiltration of inflammatory cells into the alveolus and bronchiole (H&E staining) ([1]; 60 mg/kg oral once a day for 28 days, compared with BLM and BLM+Nintedanib groups, FIG. 5) | size of the fibrosis area and deposition of collagen due to fibrosis (Masson's trichrome staining) ([1]; 60 mg/kg oral once a day for 28 days, compared with BLM and BLM+Nintedanib groups, FIG. 6) | expression of α-SMA in lung tissue (immunohistochemical staining) ([1]; 60 mg/kg oral once a day for 28 days, compared with BLM and BLM+Nintedanib groups, FIG. 7) | expression of collagen type I (collagen I) in lung tissue (immunohistochemical staining) ([1]; 60 mg/kg oral once a day for 28 days, compared with BLM and BLM+Nintedanib groups, FIG. 8) | SI ([5]; CC50/IC50, 24 hours) | SI ([5]; CC50/IC50, 48 hours) | IC50 ([5]; 24 hours after treatment) [µM] | IC50 ([5]; 48 hours after treatment) [µM] | CC50 at 24 h ([6]; 24 hours after treatment) [µM] | CC50 at 48 h ([6]; 48 hours after treatment) [µM]
COC(=O)c1ccc2c(c1)NC(=O)/C2=C(\Nc1ccc(N(C)C(=O)CN2CCN(C)CC2)cc1)c1ccccc1 [nintedanib, reference compound] | 5.2±0.45 |  |  |  |  |  |  |  |  |  |  |  |  |  |  |  |  | 
CCCc1c(-c2ccccc2)nn(-c2ccccn2)c1O [Compound 1, 3-phenyl-4-propyl-1-(pyridin-2-yl)-1H-pyrazol-5-ol hydrochloride] | 4.0±1.1 | inhibited in a concentration-dependent manner | remarkably inhibited | remarkably inhibited | effectively inhibited in a concentration-dependent manner | reduced | decreased | reduced | significantly lower than that of the experimental group and the positive control group | remarkably reduced | reduced | remarkably reduced | 13.80 | 98.50 | 31.5 | 1.67 | 435 | 164
